Reference: patent publication US7683168B2, “Compositions of novel opioid compounds and method of use thereof” (priority 2005, dated 2010)

Tests used:
mouse vas deferens = assay: electrically stimulated mouse vas deferens (MVD) ED50; assay type: cell-based; details: ED50, inhibition of electrically induced contractions
human delta receptor = biological target: T1, human delta receptor (Homo sapiens, UniProt P41143); assay: radioligand binding, human delta receptor, HEK-293 cell membranes; details: cell not marked (rat), species not given, read-out: δ
T1 construct: purchased Perkin Elmer, Boston, Mass; 6110549; host or cells: HEK-293 cells

[1] = test system: seizure-like convulsions in mice; assay: mouse seizure-like convulsions; assay type: in vivo
Procedure: Mouse Seizure-Like Convulsions and antinociception: The central (CNS) effects of the compound were tested with central delta receptor mediated seizure-like convulsions and central mu opioid receptor mediated antinociceptive effects in mice. Male CD-1 mice (Charles River, Raleigh, N.C.) weighing 20-25 g were used to determine the seizure-like convulsion and antinociception activities for compounds.
They were then observed for seizure-like convulsions for one hour following the treatment. A seizure-like event was recorded if a mouse had uncontrollable clonic (or tonic/clonic) muscle movements that encompassed its entire body, usually followed by a brief cataleptic period. Catalepsy was determined by placing the animal's front paws on a horizontal bar held 2-3 inches from the cage floor. Cataleptic animals made no attempt to remove their paws.

guinea pig ileum = assay: electrically stimulated guinea pig ileum (GPI) ED50; assay type: cell-based; details: Cavia porcellus; ED50, inhibition of electrically induced contractions
Procedure: Further the compounds of formula (1) were evaluated for in vitro opioid receptor activity in various receptor systems, including mouse vas deferens (Mouse Vas Deferens ED50), and guinea pig ileum (Guinea Pig Ileum ED50). The assay procedures used for such determinations of receptor activity are set out below.
Intact ileums (about 3 cm length) were removed from guinea pig and suspended with 1 g of tension in a bath chamber as described for the vasa deferentia. The ileums were stimulated with electrical square-wave pulses of 0.1-Hz, 1 msec pulse duration at supramaximal voltage.
The ED50 values were extrapolated from curves showing the dose concentration plotted against the response (J. A. H. Lord, A. A. Waterfield, J. Hughes, H. W. Kosterlitz, Nature 267, 495, (1977)).

human mu opioid receptor = biological target: T2, human mu opioid receptor (Homo sapiens, UniProt P35372); assay: radioligand binding, human mu opioid receptor, CHO cell membranes; details: species not given, read-out: μ
T2 construct: purchased Perkin Elmer, Boston, Mass; 6110535; host or cells: CHO cells
T2 sequence (P35372 whole entry): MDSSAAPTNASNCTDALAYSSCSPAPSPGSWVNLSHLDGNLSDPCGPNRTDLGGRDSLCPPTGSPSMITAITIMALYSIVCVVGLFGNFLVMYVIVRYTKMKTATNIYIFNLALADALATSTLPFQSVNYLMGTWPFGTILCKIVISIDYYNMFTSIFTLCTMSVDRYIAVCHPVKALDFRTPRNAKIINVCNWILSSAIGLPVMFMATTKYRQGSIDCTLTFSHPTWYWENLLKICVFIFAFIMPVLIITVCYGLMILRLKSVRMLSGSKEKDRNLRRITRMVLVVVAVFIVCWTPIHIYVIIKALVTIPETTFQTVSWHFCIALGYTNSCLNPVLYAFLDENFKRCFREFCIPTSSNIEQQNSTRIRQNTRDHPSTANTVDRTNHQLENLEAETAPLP

T1 sequence (P41143 whole entry): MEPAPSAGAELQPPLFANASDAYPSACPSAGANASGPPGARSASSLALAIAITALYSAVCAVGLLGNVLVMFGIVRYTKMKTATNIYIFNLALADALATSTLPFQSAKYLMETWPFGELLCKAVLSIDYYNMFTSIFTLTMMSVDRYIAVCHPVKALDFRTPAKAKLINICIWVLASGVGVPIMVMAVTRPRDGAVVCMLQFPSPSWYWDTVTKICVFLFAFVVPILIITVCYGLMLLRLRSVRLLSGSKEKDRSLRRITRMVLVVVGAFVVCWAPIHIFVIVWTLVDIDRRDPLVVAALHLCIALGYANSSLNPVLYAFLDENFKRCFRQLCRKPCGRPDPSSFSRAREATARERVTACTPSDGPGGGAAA

C[C@@H]1CN([C@@H](c2cccc(O)c2)c2cccc(C(=O)N3CCC(C(=O)O)CC3)c2)[C@@H](C)CN1CC1CC1 [Example 127, 1-{3-[(R)-((1S,4R)-4-Cyclopropylmethyl-2,5-dimethyl-piperazin-1-yl)-(3-hydroxy-phenyl)-methyl]-benzoyl}-piperidine-4-carboxylic acid]
EC50 (mouse vas deferens): 11.5 nM | Ki (human delta receptor): 4.35 nM | Seiz. ([1]; 10 mg/kg IV): 0% 10 mg/kg IV | EC50 (guinea pig ileum): 242 nM

CCOC(=O)CN1CCCN(C(=O)c2cccc(C(c3cccc(O)c3)N3C[C@@H](C)N(Cc4cccc(F)c4)C[C@@H]3C)c2)CC1 (stereo partly drawn)
EC50 (mouse vas deferens): 13.4 nM | Ki (human delta receptor): 5.4 nM | Ki (human mu opioid receptor): 2.6 nM | Seiz. ([1]; 10 mg/kg IV): 20% 10 mg/kg IV | EC50 (guinea pig ileum): 761 nM

CCOC(=O)CCN1CCCN(C(=O)c2cccc([C@H](c3cccc(O)c3)N3C[C@@H](C)N(Cc4cccc(F)c4)C[C@@H]3C)c2)CC1
EC50 (mouse vas deferens): 17.1 nM | Ki (human delta receptor): 71 nM | Ki (human mu opioid receptor): 4.8 nM | Seiz. ([1]; 10 mg/kg IV): 20% 10 mg/kg IV | EC50 (guinea pig ileum): 978 nM

CCOC(=O)CCN1CCCN(C(=O)c2cccc([C@H](c3cccc(O)c3)N3C[C@@H](C)N(CC4CC4)C[C@@H]3C)c2)CC1
EC50 (mouse vas deferens): 22.6 nM | Ki (human delta receptor): 121 nM | Ki (human mu opioid receptor): 2.9 nM | Seiz. ([1]; 10 mg/kg IV): 0% 10 mg/kg IV | EC50 (guinea pig ileum): 567 nM

C=CCN1C[C@H](C)N([C@@H](c2cccc(O)c2)c2cccc(C(=O)N3CCC(C(=O)O)CC3)c2)C[C@H]1C [Example 120, 1-{3-[(R)-((2S,5R)-4-Allyl-2,5-dimethyl-piperazin-1-yl)-(3-hydroxy-phenyl)-methyl]-benzoyl}-piperidine-4-carboxylic acid]
EC50 (mouse vas deferens): 2.49 nM | Ki (human mu opioid receptor): 4.1 nM | Seiz. ([1]; 10 mg/kg IV): 10% 10 mg/kg IV | EC50 (guinea pig ileum): 48.6 nM

C[C@@H]1CN([C@@H](c2cccc(O)c2)c2cccc(C(=O)N3CCCN(CCC(=O)O)CC3)c2)[C@@H](C)CN1CC1CC1
EC50 (mouse vas deferens): 66 nM | Ki (human delta receptor): 69 nM | Ki (human mu opioid receptor): 22.3 nM | Seiz. ([1]; 20 mg/kg IV): 0% 20 mg/kg IV | EC50 (guinea pig ileum): 664 nM

C[C@@H]1CN([C@@H](c2cccc(O)c2)c2cccc(C(=O)N3CCN(CC(=O)O)CC3)c2)[C@@H](C)CN1Cc1ccccc1 [Example 69, (4-{3-[(R)-((2S,5R)-4-Benzyl-2,5-dimethyl-piperazin-1-yl)-(3-hydroxy-phenyl)-methyl]-benzoyl}-piperazin-1-yl)-acetic acid]
EC50 (mouse vas deferens): 0.48 nM | Ki (human delta receptor): 0.54 nM | Ki (human mu opioid receptor): 1.36 nM | Seiz. ([1]; 10 mg/kg IV): 0% 10 mg/kg IV | EC50 (guinea pig ileum): 47.8 nM

CCOC(=O)CCCN1CCCN(C(=O)c2cccc(C(c3cccc(O)c3)N3C[C@@H](C)N(Cc4cccc(F)c4)C[C@@H]3C)c2)CC1 (stereo partly drawn)
EC50 (mouse vas deferens): 30 nM | Ki (human delta receptor): 1.7 nM | Ki (human mu opioid receptor): 2.3 nM | EC50 (guinea pig ileum): 1500 nM

CCOC(=O)C1CCN(C(=O)c2cccc([C@H](c3cccc(O)c3)N3C[C@@H](C)N(Cc4ccccc4)C[C@@H]3C)c2)CC1 [Example 122, 1-{3-[(R)-((2S,5R)-4-Benzyl-2,5-dimethyl-piperazin-1-yl)-(3-hydroxy-phenyl)-methyl]-benzoyl}-piperidine-4-carboxylic acid ethyl ester]
EC50 (mouse vas deferens): 0.82 nM | Ki (human delta receptor): 4.5 nM | Ki (human mu opioid receptor): 1.9 nM | Seiz. ([1]; 10 mg/kg IV): 70% 10 mg/kg IV | EC50 (guinea pig ileum): 153 nM

C[C@@H]1CN(C(c2cccc(O)c2)c2cccc(C(=O)N3CCCN(CCCCCC(=O)O)CC3)c2)[C@@H](C)CN1Cc1ccccc1 (stereo partly drawn)
EC50 (mouse vas deferens): 3.26 nM | Ki (human delta receptor): 2.8 nM | Ki (human mu opioid receptor): 3.9 nM | EC50 (guinea pig ileum): 303 nM

C[C@@H]1CN([C@@H](c2cccc(O)c2)c2cccc(C(=O)N3CCC(C(=O)O)CC3)c2)[C@@H](C)CN1Cc1cccc(F)c1 [Example 125, 1-{3-[(R)-[(2S,5R)-4-(3-Fluoro-benzyl)-2,5-dimethyl-piperazin-1-yl]-(3-hydroxyphenyl)-methyl]-benzoyl}-piperidine-4-carboxylic acid]
EC50 (mouse vas deferens): 1.42 nM | Seiz. ([1]; 10 mg/kg IV): 0% 10 mg/kg IV | EC50 (guinea pig ileum): 46.7 nM

C=CCN1C[C@H](C)N([C@@H](c2cccc(O)c2)c2cccc(C(=O)N3CCN(CCCCCC(=O)O)CC3)c2)C[C@H]1C [Example 94, 6-(4-{3-[(R)-((2S,5R)-4-Allyl-2,5-dimethyl-piperazin-1-yl)-(3-hydroxy-phenyl)-methyl]-benzoyl}-piperazin-1-yl)-hexanoic acid]
EC50 (mouse vas deferens): 6.07 nM | Ki (human delta receptor): 2.5 nM | Ki (human mu opioid receptor): 64.3 nM | Seiz. ([1]; 10 mg/kg IV): 0% 10 mg/kg IV

C=CCN1C[C@H](C)N([C@@H](c2cccc(O)c2)c2cccc(C(=O)N3CCN(CCCCC(=O)OCC)CC3)c2)C[C@H]1C [Example 83, 5-(4-{3-[(R)-((2S,5R)-4-Allyl-2,5-dimethyl-piperazin-1-yl)-(3-hydroxy-phenyl)-methyl]-benzoyl}-piperazin-1-yl)-pentanoic acid ethyl ester]
EC50 (mouse vas deferens): 11.8 nM | Ki (human delta receptor): 10.7 nM | Ki (human mu opioid receptor): 8.9 nM | Seiz. ([1]; 10 mg/kg IV): 30% 10 mg/kg IV

C=CCN1C[C@H](C)N([C@@H](c2cccc(O)c2)c2cccc(C(=O)N3CCN(C(=O)OCC)CC3)c2)C[C@H]1C [Example 57, 4-{3-[(R)-((2S,5R)-4-Allyl-2,5-dimethylpiperazin-1-yl)(3-hydroxy-phenyl)methyl]benzoyl}piperazine-1-carboxylic acid ethyl ester]
EC50 (mouse vas deferens): 5.15 nM | Ki (human delta receptor): 0.81 nM | Ki (human mu opioid receptor): 0.8 nM | Seiz. ([1]; 10 mg/kg IV): 40% 10 mg/kg IV

CCOC(=O)N1CCN(C(=O)c2cccc([C@H](c3cccc(O)c3)N3C[C@@H](C)N(Cc4ccccc4)C[C@@H]3C)c2)CC1 [Example 62, 4-{3-[(R)-((2S,5R)-4-Benzyl-2,5-dimethyl-piperazin-1-yl)-(3-hydroxy-phenyl)-methyl]-benzoyl}-piperazine-1-carboxylic acid ethyl ester]
EC50 (mouse vas deferens): 6.78 nM | Ki (human delta receptor): 2.2 nM | Ki (human mu opioid receptor): 1.7 nM | Seiz. ([1]; 10 mg/kg IV): 70% 10 mg/kg IV

C[C@@H]1CN([C@@H](c2cccc(O)c2)c2cccc(C(=O)N3CCC(C(=O)O)CC3)c2)[C@@H](C)CN1Cc1ccccc1 [Example 123, 1-{3-[(R)-((2S,5R)-4-Benzyl-2,5-dimethyl-piperazin-1-yl)-(3-hydroxy-phenyl)-methyl]-benzoyl}-piperidine-4-carboxylic acid]
EC50 (mouse vas deferens): 0.48 nM | Seiz. ([1]; 10 mg/kg IV): 0% 10 mg/kg IV | EC50 (guinea pig ileum): 17.8 nM

C[C@@H]1CN(C(c2cccc(O)c2)c2cccc(C(=O)N3CCCN(CCCC(=O)O)CC3)c2)[C@@H](C)CN1Cc1cccc(F)c1 (stereo partly drawn)
EC50 (mouse vas deferens): 6.37 nM | Ki (human delta receptor): 94 nM | Ki (human mu opioid receptor): 0.27 nM | Seiz. ([1]; 10 mg/kg IV): 0% 10 mg/kg IV

C=CCN1C[C@H](C)N([C@@H](c2cccc(O)c2)c2cccc(C(=O)N3CCC(NCCCC(=O)O)CC3)c2)C[C@H]1C [Example 142, 4-(1-{3-[(R)-((2S,5R)-4-Allyl-2,5-dimethyl-piperazin-1-yl)-(3-hydroxy-phenyl)-methyl]-benzoyl}-piperidin-4-ylamino)-butyric acid]
EC50 (mouse vas deferens): 12.5 nM | Ki (human delta receptor): 1.7 nM | Ki (human mu opioid receptor): 8.7 nM | Seiz. ([1]; 10 mg/kg IV): 0% 10 mg/kg IV

C[C@@H]1CN(C(c2cccc(O)c2)c2cccc(C(=O)N3CCCN(CC(=O)O)CC3)c2)[C@@H](C)CN1CC1CC1 (stereo partly drawn)
EC50 (mouse vas deferens): 65.2 nM | Ki (human delta receptor): 6.8 nM | Ki (human mu opioid receptor): 33.1 nM | Seiz. ([1]; 20 mg/kg IV): 0% 20 mg/kg IV

C[C@@H]1CN([C@@H](c2cccc(O)c2)c2cccc(C(=O)N3CCN(CCCCCC(=O)O)CC3)c2)[C@@H](C)CN1Cc1ccccc1 [Example 97, 6-(4-{3-[(R)-((2S,5R)-4-Benzyl-2,5-dimethyl-piperazin-1-yl)-(3-hydroxy-phenyl)-methyl]-benzoyl}-piperazin-1-yl)-hexanoic acid]
EC50 (mouse vas deferens): 2.5 nM | Ki (human delta receptor): 1.2 nM | Seiz. ([1]; 10 mg/kg IV): 0% 10 mg/kg IV | EC50 (guinea pig ileum): 445 nM

C[C@@H]1CN(C(c2cccc(O)c2)c2cccc(C(=O)N3CCCN(CC(=O)O)CC3)c2)[C@@H](C)CN1Cc1ccccc1 (stereo partly drawn)
EC50 (mouse vas deferens): 1.4 nM | Ki (human mu opioid receptor): 1.27 nM | Seiz. ([1]; 20 mg/kg IV): 0% 20 mg/kg IV | EC50 (guinea pig ileum): > 1000 nM

C=CCN1C[C@H](C)N([C@@H](c2cccc(O)c2)c2cccc(C(=O)N3CCC(NCc4ccc(C(=O)O)cc4)CC3)c2)C[C@H]1C [Example 140, 4-[(1-{3-[(R)-((2S,5R)-4-Allyl-2,5-dimethyl-piperazin-1-yl)-(3-hydroxy-phenyl)-methyl]-benzoyl}-piperidin-4-ylamino)-methyl]-benzoic acid]
EC50 (mouse vas deferens): 6.74 nM | Ki (human delta receptor): 1.2 nM | Ki (human mu opioid receptor): 4.6 nM | Seiz. ([1]; 10 mg/kg IV): 0% 10 mg/kg IV

C=CCN1C[C@H](C)N([C@@H](c2cccc(O)c2)c2cccc(C(=O)N3CCNCC3)c2)C[C@H]1C [Example 58, {3-[(R)-((2S,5R)-4-Allyl-2,5-dimethyl-piperazin-1-yl)-(3-hydroxy-phenyl)-methyl]-phenyl}-piperazin-1-yl-methanone]
EC50 (mouse vas deferens): 12.1 nM | Ki (human delta receptor): 5.1 nM | Ki (human mu opioid receptor): 1.1 nM | Seiz. ([1]; 10 mg/kg IV): 0% 10 mg/kg IV
